# Experimental data: patent US20220236254A1, “BITTER TASTE RECEPTOR BLOCKERS AND METHODS OF THEIR IDENTIFICATION” (Firmenich Incorporated, priority 2019, published 2022)
# Columns and labels:
# Format in all cases: cell-based
# [1] = molecular target: T1, polypeptide identified herein as SEQ ID NO: 2 (hT2R44) (Homo sapiens, UniProt P59541, F252L); assay: Bitterness antagonism: PMFs antagonizing limonin on cells expressing the receptor; conditions: limonin 25 μM
# T1 construct: expressed in transfected cells; host or cells: cells expressing a promiscuous G protein (G16g44)
# T1 sequence (P59541 1-319 F252L): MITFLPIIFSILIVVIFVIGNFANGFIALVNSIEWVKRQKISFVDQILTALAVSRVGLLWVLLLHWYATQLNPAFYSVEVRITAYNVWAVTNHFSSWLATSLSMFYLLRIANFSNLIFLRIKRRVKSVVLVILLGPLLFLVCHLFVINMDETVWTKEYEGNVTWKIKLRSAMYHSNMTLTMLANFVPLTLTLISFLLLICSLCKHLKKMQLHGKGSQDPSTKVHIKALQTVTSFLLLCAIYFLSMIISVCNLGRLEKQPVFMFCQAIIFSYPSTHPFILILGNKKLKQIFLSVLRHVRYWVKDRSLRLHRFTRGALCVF
# Procedure: (§1) Cells expressing a promiscuous G protein (G16g44) were transfected using TransIT-293 (Mirus) with expression vectors encoding 22 functional biter receptor cDNAs, with one receptor per transfection. The cells were transfected directly in 384-well format high-density plates and incubated for 28 hours. Later, cells were loaded with the Ca-specific dye Fluo4-AM. After an incubation of 60 minutes, excess dye is washed off, and cells are stimulated with respective bitter agonists while simultaneously recording changes in intracellular fluorescence using a FLIPR instrument. Bitter agonist and responding receptors were identified and respective stable bitter receptor cell lines were then used in the same assay to perform full dose-response analysis with the respective bitter agonists.
# Certain PMFs were tested for their ability to antagonize binding of limonin to cells expressing the polypeptide identified herein as SEQ ID NO: 2.
# [2] = molecular target: T2, SEQ ID NO: 1 (hT2R80) (Homo sapiens, UniProt Q9NYW2); assay: Bitter receptor identification, FLIPR calcium assay with bitter agonist; conditions: concentration range of 12.5 μM to 50 μM; cells expressing SEQ ID NO: 1
# T2 construct: expressed in transfected cells; host or cells: cells expressing a promiscuous G protein (G16g44)
# T2 sequence (Q9NYW2 1-309): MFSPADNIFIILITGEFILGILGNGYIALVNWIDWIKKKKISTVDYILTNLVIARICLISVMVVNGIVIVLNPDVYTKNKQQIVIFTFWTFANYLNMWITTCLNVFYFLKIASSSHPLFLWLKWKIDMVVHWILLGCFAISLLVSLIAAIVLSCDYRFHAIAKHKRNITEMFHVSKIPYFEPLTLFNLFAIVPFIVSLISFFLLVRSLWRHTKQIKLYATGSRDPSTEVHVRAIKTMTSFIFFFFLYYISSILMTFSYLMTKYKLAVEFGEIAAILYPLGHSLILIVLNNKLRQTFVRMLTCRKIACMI
# Procedure: as §1, with “([…])” for “(G16g44)”, “agonists. The above protocol was carried out using limonin as a non-limiting example of a bitter agonist. […] The five expressed receptor proteins correspond to the amino acid sequences identified herein as SEQ ID NO: 1, 2, 3, 4, and 5.” for “agonists.”
# [3] = molecular target: T3, SEQ ID NO: 2 (hT2R44) (Homo sapiens, UniProt P59541, F252L); assay: as above; conditions: concentration range of 12.5 μM to 50 μM; cells expressing SEQ ID NO: 2
# T3 construct: expressed in transfected cells; host or cells: cells expressing a promiscuous G protein (G16g44)
# T3 sequence (P59541 1-319 F252L): T1 sequence (P59541 1-319 F252L)
# Procedure: as §1, with “([…])” for “(G16g44)”, “agonists. The above protocol was carried out using limonin as a non-limiting example of a bitter agonist. […] The five expressed receptor proteins correspond to the amino acid sequences identified herein as SEQ ID NO: 1, 2, 3, 4, and 5.” for “agonists.”
# [4] = molecular target: T4, SEQ ID NO: 5 (hT2R75) (Homo sapiens, UniProt P59540); assay: as above; conditions: concentration range of 12.5 μM to 50 μM; cells expressing SEQ ID NO: 5
# T4 construct: expressed in transfected cells; host or cells: cells expressing a promiscuous G protein (G16g44)
# T4 sequence (P59540 1-309): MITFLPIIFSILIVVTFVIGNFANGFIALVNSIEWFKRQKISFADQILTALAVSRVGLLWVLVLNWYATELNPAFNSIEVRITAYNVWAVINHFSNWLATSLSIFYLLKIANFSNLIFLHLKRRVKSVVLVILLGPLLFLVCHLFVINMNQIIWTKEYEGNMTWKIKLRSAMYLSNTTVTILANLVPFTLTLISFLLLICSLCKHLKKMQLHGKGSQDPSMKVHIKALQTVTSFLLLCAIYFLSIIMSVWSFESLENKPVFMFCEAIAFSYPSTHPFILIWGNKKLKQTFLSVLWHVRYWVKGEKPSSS
# Procedure: as §1, with “([…])” for “(G16g44)”, “agonists. The above protocol was carried out using limonin as a non-limiting example of a bitter agonist. […] The five expressed receptor proteins correspond to the amino acid sequences identified herein as SEQ ID NO: 1, 2, 3, 4, and 5.” for “agonists.”
# [5] = molecular target: T5, SEQ ID NO: 4 (hT2R65) (Homo sapiens, UniProt P59542, V32I); assay: as above; conditions: concentration range of 12.5 μM to 50 μM; cells expressing SEQ ID NO: 4
# T5 construct: expressed in transfected cells; host or cells: cells expressing a promiscuous G protein (G16g44)
# T5 sequence (P59542 1-299 V32I): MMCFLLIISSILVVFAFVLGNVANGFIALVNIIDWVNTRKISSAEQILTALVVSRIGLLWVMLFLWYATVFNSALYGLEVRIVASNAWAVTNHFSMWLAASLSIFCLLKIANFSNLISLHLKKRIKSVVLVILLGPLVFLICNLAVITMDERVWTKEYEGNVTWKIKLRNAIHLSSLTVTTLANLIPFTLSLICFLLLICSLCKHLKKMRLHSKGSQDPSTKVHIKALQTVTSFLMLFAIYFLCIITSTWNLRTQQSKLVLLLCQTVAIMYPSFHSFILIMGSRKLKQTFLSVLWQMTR
# Procedure: as §1, with “([…])” for “(G16g44)”, “agonists. The above protocol was carried out using limonin as a non-limiting example of a bitter agonist. […] The five expressed receptor proteins correspond to the amino acid sequences identified herein as SEQ ID NO: 1, 2, 3, 4, and 5.” for “agonists.”
# [6] = molecular target: T6, SEQ ID NO: 3 (hT2R51) (Homo sapiens, UniProt P59533, A49P/I296V); assay: as above; conditions: concentration range of 12.5 μM to 50 μM; cells expressing SEQ ID NO: 3
# T6 construct: expressed in transfected cells; host or cells: cells expressing a promiscuous G protein (G16g44)
# T6 sequence (P59533 1-333 A49P/I296V): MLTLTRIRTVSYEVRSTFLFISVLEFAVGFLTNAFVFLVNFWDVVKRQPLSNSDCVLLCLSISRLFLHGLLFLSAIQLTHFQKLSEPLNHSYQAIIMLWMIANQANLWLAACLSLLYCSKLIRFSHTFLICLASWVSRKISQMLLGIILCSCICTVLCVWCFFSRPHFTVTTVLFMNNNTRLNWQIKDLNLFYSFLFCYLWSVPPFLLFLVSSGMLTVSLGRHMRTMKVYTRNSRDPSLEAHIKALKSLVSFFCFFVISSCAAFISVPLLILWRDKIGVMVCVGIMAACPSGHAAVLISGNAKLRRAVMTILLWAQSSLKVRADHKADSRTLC
# Procedure: as §1, with “([…])” for “(G16g44)”, “agonists. The above protocol was carried out using limonin as a non-limiting example of a bitter agonist. […] The five expressed receptor proteins correspond to the amino acid sequences identified herein as SEQ ID NO: 1, 2, 3, 4, and 5.” for “agonists.”
# [7] = antagonist 200 μM (no antagonist: 98)
smiles,measurement,setting,value
COc1ccc(-c2cc(=O)c3c(OC)c(OC)c(OC)cc3o2)cc1OC,% Limonin Activation,[1]; [7],70%
CC1(C)O[C@H]2CC(=O)OC[C@]23[C@H]2CC[C@@]4(C)[C@H](c5ccoc5)OC(=O)[C@H]5O[C@]54[C@]2(C)C(=O)C[C@@H]13 [limonin],dose response of receptor to bitter agonist,[2],positive dose response
same,dose response of receptor to bitter agonist,[3],positive dose response
same,dose response of receptor to bitter agonist,[4],positive dose response
same,dose response of receptor to bitter agonist,[5],positive dose response
same,dose response of receptor to bitter agonist,[6],positive dose response
COc1cc(-c2cc(=O)c3c(OC)c(OC)c(OC)cc3o2)ccc1O,% Limonin Activation,[1]; [7],64%
COc1ccc(-c2cc(=O)c3c(OC)c(OC)c(OC)c(OC)c3o2)cc1OC,% Limonin Activation,[1]; [7],74%
COc1ccc(-c2oc3c(OC)c(OC)c(OC)c(OC)c3c(=O)c2OC)cc1OC,% Limonin Activation,[1]; [7],79%
COc1ccc(-c2oc3cc(OC)c(OC)c(OC)c3c(=O)c2OC)cc1OC,% Limonin Activation,[1]; antagonist 100 μM (no antagonist: 98),77%
COc1ccc(-c2cc(=O)c3c(OC)c(OC)c(OC)c(OC)c3o2)cc1,% Limonin Activation,[1]; antagonist 50 μM (no antagonist: 98),76%
